According to article PMC6912754, “Identification of A Novel Class of Benzofuran Oxoacetic Acid-Derived Ligands that Selectively Activate Cellular EPAC1” (Cells, 2019):

These compounds were tested against T1, EPAC2-CNBD (Homo sapiens, UniProt Q8WZA2) (assay: biochemical). Conditions: 8-NBD-cAMP displacement, mean; read-out: Pharmacology assay data / EPAC2 pIC50 (mean) (converted).
T1 construct: gene RAPGEF4
Design: 8-NBD-cAMP competition binding to GST-CNBD, fluorescence intensity 480/535 nm, dose response
Experimental: 8-(2-[7-nitro-4-benzofurazanyl] aminoethylthio) adenosine-3′,5′-cyclic monophosphate (8-NBD-cAMP) competition assays were performed with purified EPAC1-CNBD and EPAC2-CNBD GST-fusion proteins as previously described. Comparison of reference molecules, dose response curves (DRC) and pilot screens were done in black, low volume 384 assay plates (Greiner). Plates were incubated for 4 h before 8-NBD-cAMP fluorescence intensity at 480/535 nm (ex/em) was measured using the Envision multi-label plate reader (Perkin-Elmer; Waltham, MA, USA). EPAC1-CNBD (amino acids 169–318 of EPAC1) and EPAC2-CNBD (amino acids 304-453) cDNAs were previously sub-cloned into the multi-cloning site of the pGEX-6P-1 expression vector (GE Healthcare) by BC Bioscienes (Dundee, Scotland). Ral-GDS-RBD (amino acids 788-884) was cloned into pGEX-5X-1 as described. Recombinant EPAC1-CNBD, EPAC2-CNBD, EPAC1 (amino acids 149–881), Ral-GDS-RBD (amino acids 788-884), and Rap1B (amino acids 1–167) glutathione S-transferase (GST)-fusion proteins were then expressed and purified from BL-21 Escherichia coli, as previously described. Protein concentrations were determined by the bicinchoninic acid (BCA) assay or by Nanodrop 2000/2000c (Thermo Scientific). All recombinant proteins were determined to be pure by SDS-PAGE analysis. Proteins were stored in aliquots at −80 °C until required. Preliminary SAR on a benzofuran oxo-acetic acid series, based on SY000, was done using 8NBD-cAMP binding to EPAC1 and EPAC2 CNBDs, as summarized in the Supplementary Table, Supplementary Figures and Figure 4. […] Further alternatives to the R1 group (Figure S2), including reducing the linker length by a single [compound left out] […] In addition, N-methylation of the amide portion (ESC100960) also results in loss of activity. This could indicate a role for the NH as a hydrogen bond donor or that the substitution could adversely affect the conformation of the adjacent oxo-acetic acid group.

T1 sequence (Q8WZA2 whole entry): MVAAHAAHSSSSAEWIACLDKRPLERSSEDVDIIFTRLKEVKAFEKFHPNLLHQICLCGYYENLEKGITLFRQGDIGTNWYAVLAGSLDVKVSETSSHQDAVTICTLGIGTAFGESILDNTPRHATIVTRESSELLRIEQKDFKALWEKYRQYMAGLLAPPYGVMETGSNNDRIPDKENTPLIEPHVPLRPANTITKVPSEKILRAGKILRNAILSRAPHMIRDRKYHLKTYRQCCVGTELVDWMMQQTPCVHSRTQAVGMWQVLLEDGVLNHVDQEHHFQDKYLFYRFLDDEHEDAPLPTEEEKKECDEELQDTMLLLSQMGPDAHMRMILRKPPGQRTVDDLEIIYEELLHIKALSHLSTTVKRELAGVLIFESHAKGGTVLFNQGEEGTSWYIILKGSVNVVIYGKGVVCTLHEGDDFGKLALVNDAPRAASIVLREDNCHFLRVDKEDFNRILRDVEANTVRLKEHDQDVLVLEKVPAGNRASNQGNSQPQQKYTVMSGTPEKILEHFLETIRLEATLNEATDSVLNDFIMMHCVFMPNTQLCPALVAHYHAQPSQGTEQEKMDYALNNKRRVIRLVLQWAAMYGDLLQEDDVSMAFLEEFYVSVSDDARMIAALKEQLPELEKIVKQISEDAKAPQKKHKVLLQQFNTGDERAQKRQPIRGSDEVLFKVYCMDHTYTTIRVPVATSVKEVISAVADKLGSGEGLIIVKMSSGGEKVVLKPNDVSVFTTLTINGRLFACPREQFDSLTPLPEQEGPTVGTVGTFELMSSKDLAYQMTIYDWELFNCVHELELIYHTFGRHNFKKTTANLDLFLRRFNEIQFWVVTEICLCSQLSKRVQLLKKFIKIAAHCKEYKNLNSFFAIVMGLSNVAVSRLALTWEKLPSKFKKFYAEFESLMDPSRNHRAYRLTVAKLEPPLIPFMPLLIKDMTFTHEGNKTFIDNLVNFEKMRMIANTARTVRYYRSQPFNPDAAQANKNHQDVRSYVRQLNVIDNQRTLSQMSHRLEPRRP

Row | SMILES | IC50 [µM]
1 | Cc1c(C(=O)c2cccc(Br)c2)oc2ccc(CNC(=O)C(=O)O)cc12 [ESC1000906] | 7.94
2 | Cc1ccc(C(=O)c2oc3ccc(CNC(=O)C(=O)O)cc3c2C)cc1 [SY000] | 7.94
3 | Cc1ccc(C(=O)c2oc3ccc(CNC(=O)C(=O)O)cc3c2C(C)(C)C)cc1 [SY006] | 22.4

Next, values leading:

Row | IC50 [µM] | SMILES
4 | 5.01 | CCc1c(C(=O)c2ccc(C)cc2)oc2ccc(CNC(=O)C(=O)O)cc12 [SY007]
5 | 31.6 | Cc1ccc(C(=O)c2oc3ccc(CNC(=O)C(=O)O)cc3c2C(C)C)cc1 [SY009]
